Numbers after ± are expanded uncertainties.
Test: activity coefficient (dimensionless); of the first substance listed, at infinite dilution; xn = mol fraction of the nth substance listed
Conditions: 101 kPa, Liquid, dilutor technique, x1 = 0

Work on CCCCCCCCCC [decane] + CCCCCCn1cc[n+](C)c1.F[B-](F)(F)F yielded an activity coefficient (318.21 K) of 129 ± 6.4, an activity coefficient (328.16 K) of 115 ± 5.8 and an activity coefficient (338.14 K) of 110 ± 5.5. For the same compound, the activity coefficient (348.16 K) was 104 ± 5.2.

CCCCCCC [heptane] + CCCCCCn1cc[n+](C)c1.F[B-](F)(F)F gave an activity coefficient (303.16 K) of 45 ± 2.2, an activity coefficient (318.14 K) of 42 ± 2.1 and an activity coefficient (323.27 K) of 41.1 ± 2. The activity coefficient (333.11 K) was 38.9 ± 1.9 and the activity coefficient (343.09 K) was 36.8 ± 1.8.

C=CCCCCC [1-heptene] + CCCCn1cc[n+](C)c1.F[B-](F)(F)F showed an activity coefficient (323.16 K) of 52 ± 2.6, an activity coefficient (333.24 K) of 50.3 ± 2.5 and an activity coefficient (343.15 K) of 46.6 ± 2.3. For the same compound, the activity coefficient (353.23 K) was 43.2 ± 2.2.

CCCCCCCC [octane] + CCCCCCn1cc[n+](C)c1.F[B-](F)(F)F showed an activity coefficient (303.16 K) of 69.6 ± 3.5, an activity coefficient (318.14 K) of 62.3 ± 3.1 and an activity coefficient (323.27 K) of 59.5 ± 3. For the same compound, the activity coefficient (333.11 K) was 56 ± 2.8 and the activity coefficient (343.09 K) was 52.5 ± 2.6.

C=CCCCCCCCC [1-decene] + CCCCn1cc[n+](C)c1.F[B-](F)(F)F showed an activity coefficient (323.16 K) of 224 ± 11, an activity coefficient (333.17 K) of 207 ± 10 and an activity coefficient (343.17 K) of 190 ± 9.5. It also gave an activity coefficient (353.16 K) of 180 ± 9.

Compound C=CCCCC [hex-1-ene] + CCCCn1cc[n+](C)c1.F[B-](F)(F)F has an activity coefficient (323.16 K) of 30.1 ± 1.5, an activity coefficient (333.15 K) of 27.8 ± 1.4 and an activity coefficient (343.22 K) of 25.7 ± 1.3. It also gave an activity coefficient (353.14 K) of 23.9 ± 1.2.

With C=CCCCC [hex-1-ene] + CCCCCCn1cc[n+](C)c1.F[B-](F)(F)F the activity coefficient (318.11 K) was 13 ± 0.65, the activity coefficient (328.19 K) was 12.1 ± 0.61 and the activity coefficient (338.17 K) was 11.9 ± 0.6. The activity coefficient (348.15 K) was 11.4 ± 0.57.

CCCCCCCCC [nonane] + CCCCCCn1cc[n+](C)c1.F[B-](F)(F)F gave an activity coefficient (318.21 K) of 88 ± 4.4, an activity coefficient (328.16 K) of 81.2 ± 4.1 and an activity coefficient (338.14 K) of 76.7 ± 3.8. For the same compound, the activity coefficient (348.16 K) was 72.9 ± 3.6.

For CCCCCC [hexane] + CCCCn1cc[n+](C)c1.F[B-](F)(F)F, the activity coefficient (323.15 K) was 66.7 ± 3.3, the activity coefficient (328.18 K) was 63.3 ± 3.2 and the activity coefficient (333.2 K) was 61 ± 3. For the same compound, the activity coefficient (343.26 K) was 54.9 ± 2.8.

Compound CCCCCCCCCC [decane] + CCCCn1cc[n+](C)c1.F[B-](F)(F)F has an activity coefficient (323.12 K) of 620 ± 31, an activity coefficient (343.21 K) of 443 ± 22 and an activity coefficient (353.16 K) of 383 ± 19.

For C=CCCCCCC [oct-1-ene] + CCCCn1cc[n+](C)c1.F[B-](F)(F)F, the activity coefficient (323.16 K) was 88.6 ± 4.4, the activity coefficient (333.24 K) was 84.8 ± 4.2 and the activity coefficient (343.15 K) was 78.8 ± 3.9. It also gave an activity coefficient (353.23 K) of 74.2 ± 3.7.

In the case of C=CCCCCCCCC [1-decene] + CCCCCCn1cc[n+](C)c1.F[B-](F)(F)F, the activity coefficient (318.2 K) is reported as 54.6 ± 2.7, the activity coefficient (328.16 K) is reported as 48.7 ± 2.4 and the activity coefficient (338.17 K) is reported as 46 ± 2.3.

CCCCCCC [heptane] + CCCCn1cc[n+](C)c1.F[B-](F)(F)F gave an activity coefficient (323.16 K) of 95.8 ± 4.8, an activity coefficient (328.16 K) of 89 ± 4.5 and an activity coefficient (333.14 K) of 83.8 ± 4.2. The activity coefficient (338.14 K) was 80.1 ± 4 and the activity coefficient (343.22 K) was 75.3 ± 3.8.

For CCCCCCCCC [nonane] + CCCCn1cc[n+](C)c1.F[B-](F)(F)F, the activity coefficient (323.12 K) was 334 ± 17, the activity coefficient (343.21 K) was 270 ± 14 and the activity coefficient (353.16 K) was 225 ± 11.

C=CCCCCCC [oct-1-ene] + CCCCCCn1cc[n+](C)c1.F[B-](F)(F)F gave an activity coefficient (318.11 K) of 29.4 ± 1.5, an activity coefficient (328.19 K) of 28.1 ± 1.4 and an activity coefficient (338.14 K) of 27.2 ± 1.4. For the same compound, the activity coefficient (348.11 K) was 25.8 ± 1.3.

Work on CCCCCCCC [octane] + CCCCn1cc[n+](C)c1.F[B-](F)(F)F yielded an activity coefficient (323.16 K) of 170 ± 8.5, an activity coefficient (328.16 K) of 160 ± 8 and an activity coefficient (333.14 K) of 155 ± 7.7. It also gave an activity coefficient (338.14 K) of 146 ± 7.3 and an activity coefficient (343.22 K) of 143 ± 7.1.

For C=CCCCCC [1-heptene] + CCCCCCn1cc[n+](C)c1.F[B-](F)(F)F, the activity coefficient (318.11 K) was 19.6 ± 0.98, the activity coefficient (328.19 K) was 19.3 ± 0.97 and the activity coefficient (338.14 K) was 18.8 ± 0.94. For the same compound, the activity coefficient (348.11 K) was 18 ± 0.9.

— the NIST ThermoML archive (doi:10.1016/j.fluid.2009.05.007)
